Laboratory results from patent US20070065443A1, “Fructoseamine 3 kinase and the formation of collagen and elastin” (priority 2004, published 2007).
Several values for one entry are separate records, joined by “and”; a condition that tells them apart may be missing. Equal values may be shown once. Blank lines part the entries; values can stand above or below the compound they belong to.

Tests used:
desmosines [1] = experiment: Aorta desmosine levels in diabetic rats; format: in vivo, rat
Experimental: (§1) For desmosine analysis, the biopsy of tissue is fixated using paraffin. The paraffin is removed from the […] in the microfuge tubes by incubating for 10 minutes with 500 μL of xylene. Five microliters of water is added, the tubes gently vortexed and then microfuged. The xylene is carefully removed, 400 μL of 6N HCl is added to the protein pellet, and the samples hydrolyzed for 24 hours at 100° C. The acid is evaporated in a savant vacuum centrifuge and the hydrolysate redissolved in 400 μL distilled water. The samples are vortexed and microfuged and 20 μL removed from each tube for desmosine analysis by radioimmunoassay. Protein content is determined in 2 μL of the hydrolysate by slightly modifying the ninhydrin method. A stock ninhydrin solution is made by dissolving 10 g of ninhydrin in 375 mL of ethylene glycol and 125 mL of 4N sodium acetate buffer, pH 5.5. For the working solution, 250 μL of 10% stannous chloride suspension is added for every 10 mL of the ninhydrin stock solution. Hydroxyproline is determined in 50 μL of hydrolysate by amino acid analysis.

desmosines [2] = experiment: Skin desmosine content in diabetic rats; format: in vivo, rat
Experimental: as §1
The production of desmosines, a precursor to elastin, can be regulated by compounds that affect the Amadorase pathway. Skin from normal, diabetic, and animals treated with 1-deoxy-1-morpholinofructose were excised and for desmosine content as described in example 29.

[3] = molecular target: T1, Calf skin collagen type I (Bos taurus, UniProt P02453+P02465); experiment: 3DG-induced collagen crosslinking and inhibition by arginine (CNBr digest, SDS-PAGE); format: biochemical; conditions: 37° C., 24 hours
T1 construct: Calf skin collagen type I (1.3 mg; Sigma); purchased Sigma; host or cells: calf skin
T1 sequence (P02453 162-1217 limits assumed): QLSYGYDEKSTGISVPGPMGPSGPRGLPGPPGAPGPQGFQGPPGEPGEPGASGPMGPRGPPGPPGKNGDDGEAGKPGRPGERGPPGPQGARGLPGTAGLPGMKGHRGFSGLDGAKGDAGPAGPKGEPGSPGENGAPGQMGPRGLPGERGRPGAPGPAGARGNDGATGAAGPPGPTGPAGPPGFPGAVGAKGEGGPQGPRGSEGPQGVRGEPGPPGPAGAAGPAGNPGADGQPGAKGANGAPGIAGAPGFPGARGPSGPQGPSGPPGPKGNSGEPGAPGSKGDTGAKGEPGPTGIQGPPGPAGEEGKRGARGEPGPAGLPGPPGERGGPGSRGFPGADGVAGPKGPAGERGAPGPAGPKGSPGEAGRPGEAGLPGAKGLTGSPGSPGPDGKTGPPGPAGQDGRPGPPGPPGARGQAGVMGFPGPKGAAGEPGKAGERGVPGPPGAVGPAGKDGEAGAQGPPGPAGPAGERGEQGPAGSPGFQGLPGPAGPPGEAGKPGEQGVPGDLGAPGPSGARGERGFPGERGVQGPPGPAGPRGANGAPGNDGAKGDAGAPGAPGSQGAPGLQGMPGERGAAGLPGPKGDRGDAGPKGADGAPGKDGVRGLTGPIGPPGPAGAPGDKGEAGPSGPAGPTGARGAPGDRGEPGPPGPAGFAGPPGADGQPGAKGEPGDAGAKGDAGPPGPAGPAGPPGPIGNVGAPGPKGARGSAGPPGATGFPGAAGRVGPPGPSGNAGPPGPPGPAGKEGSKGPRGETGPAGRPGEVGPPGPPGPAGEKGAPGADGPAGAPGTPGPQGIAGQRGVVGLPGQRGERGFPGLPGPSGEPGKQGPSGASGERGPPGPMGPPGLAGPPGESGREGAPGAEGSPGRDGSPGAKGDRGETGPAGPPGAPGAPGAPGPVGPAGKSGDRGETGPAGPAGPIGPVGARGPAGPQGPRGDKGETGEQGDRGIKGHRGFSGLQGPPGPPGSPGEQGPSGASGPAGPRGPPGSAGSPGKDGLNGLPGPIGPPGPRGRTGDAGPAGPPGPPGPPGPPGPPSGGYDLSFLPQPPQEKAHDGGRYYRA
T1 sequence (P02465 80-1117 limits assumed): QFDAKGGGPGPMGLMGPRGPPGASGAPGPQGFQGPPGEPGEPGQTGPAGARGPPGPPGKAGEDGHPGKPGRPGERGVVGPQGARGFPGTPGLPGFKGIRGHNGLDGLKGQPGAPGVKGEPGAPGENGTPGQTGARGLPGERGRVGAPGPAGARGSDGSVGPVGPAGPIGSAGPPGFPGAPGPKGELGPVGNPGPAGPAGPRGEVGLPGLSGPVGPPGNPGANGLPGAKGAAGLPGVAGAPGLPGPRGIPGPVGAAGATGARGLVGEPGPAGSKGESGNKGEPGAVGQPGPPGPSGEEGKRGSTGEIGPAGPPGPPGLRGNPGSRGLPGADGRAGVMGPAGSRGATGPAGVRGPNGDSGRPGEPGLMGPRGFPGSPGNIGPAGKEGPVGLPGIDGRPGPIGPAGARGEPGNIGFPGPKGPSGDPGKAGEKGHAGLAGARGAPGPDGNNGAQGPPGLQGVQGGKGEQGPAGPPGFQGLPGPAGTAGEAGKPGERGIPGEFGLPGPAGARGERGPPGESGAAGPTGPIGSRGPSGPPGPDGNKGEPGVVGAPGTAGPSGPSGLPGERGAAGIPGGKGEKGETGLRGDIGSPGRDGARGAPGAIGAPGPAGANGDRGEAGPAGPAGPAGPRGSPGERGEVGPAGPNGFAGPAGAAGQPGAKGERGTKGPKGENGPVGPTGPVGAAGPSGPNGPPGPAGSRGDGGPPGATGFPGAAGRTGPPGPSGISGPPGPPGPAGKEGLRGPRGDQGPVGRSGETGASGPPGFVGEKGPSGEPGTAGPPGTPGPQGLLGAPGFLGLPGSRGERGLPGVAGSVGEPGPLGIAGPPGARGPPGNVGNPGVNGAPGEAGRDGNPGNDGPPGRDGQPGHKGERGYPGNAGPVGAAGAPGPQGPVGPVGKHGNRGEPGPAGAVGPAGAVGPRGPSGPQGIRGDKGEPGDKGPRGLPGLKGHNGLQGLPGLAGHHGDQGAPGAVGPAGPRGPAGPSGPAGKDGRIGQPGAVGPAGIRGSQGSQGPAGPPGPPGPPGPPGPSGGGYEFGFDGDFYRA
Experimental: Collagen type I was treated with 3DG in the-presence or absence of arginine. The samples were subjected to cyanogen bromide (CNBr) digestion, electrophoresed on a 16.5% SDS Tris-tricine gel, and then the gels were processed using silver stain techniques to visualize the proteins. Lane 1 contains molecular weight marker standards. Lanes 2 and 5 contain 10 and 20 μl of the collagen mixture following CNBr digestion. Lanes 3 and 6 contain the collagen mixture treated with 3DG and then digested with CNBr, and loaded at 10 and 20 μl, respectively. Lanes 4 and 7 contain the mixture of collagen incubated with 5 mM 3DG and 10 mM arginine and then digested with CNBr, and loaded at 10 and 20 μl, respectively.
Collagen I was incubated in the presence or absence of 3DG in vitro. Calf skin collagen type I (1.3 mg; Sigma) was incubated in 20 mM Na-phosphate buffer, pH 7.25, either alone, with 5 mM 3DG, or with 5 mM 3DG plus 10 mM arginine, in a total volume of 1 ml at 37° C. for 24 hours and then frozen and lyophilized. The residue was dissolved in 0.5 ml of 70% formic acid and cyanogen bromide was added (20:1, w/w). This solution was incubated at 30° C. for 18 hours. […] The extent of collagen crosslinking was determined by applying equal volumes of sample and analyzing by SDS-PAGE electrophoresis (16.5% Tris-tricine gel), as determined by the effects of 3DG on the migration of collagen.

Amadorase [4] = conditions: read-out: concentration inhibiting Amadorase by 50%; purified Amadorase, 37° C., 15 minutes
Experimental: Experiments were performed to test the effect of copper on the activity of the Amadorase enzyme in vitro. Using methods described elsewhere, increasing amounts of copper in the form of CuSO4, was added to an in vitro assay. Purified Amadorase was added to the reaction, incubated at 37° C. for 15 minutes, and the amount of FL3P measured. The graph depicted in FIG. 20 represents percent Amadorase activity as a function of copper concentration.

Amadorase [5] = experiment: In vitro Amadorase-dependent production of 3DG from FL; format: biochemical; conditions: FL 2.6 mM
[6] = Urinary FL, 3DG and 3DF in humans after ingestion of glycated protein (2 g FL); format: in vivo, human; conditions: seven volunteers, 2 gram dose of fructoselysine as glycated protein food
Experimental: 260 g of casein, 120 g of glucose and 720 ml of water were mixed to give a homogeneous mixture. This mixture was transferred to a metal plate and heated at 65° C. for 68 hours. The resulting cake was then pulverized to a coarse powder. This powder contained 60% protein as determined by the Kjeldahl procedure.
One gram of the powder prepared as in step a., above, was hydrolyzed by refluxing with 6N HCl for 20 hours. The resulting solution was adjusted to pH 1.8 with NaOH solution and diluted to 100 ml. The fructoselysine content was measured on an amino acid analyzer as furosine, the product obtained from acid hydrolysis of fructoselysine. In this way, it was determined that the cake contained 5.5% (w/w) fructoselysine. […]
FL was measured by HPLC with a Waters 996 diode Array using a Waters C18 Free Amino Acid column at […] and a gradient elution system of acetonitrile-methyl alcohol-water (45:15:40) into acetonitrile-sodium acetate-water (6:2:92) at 1 ml/min. Quantitation employed an internal standard of meglumine. 3DF was measured by HPLC after deionization of the sample. […] Quantitation was performed from standard curves obtained daily with synthetic 3DF.
3DG was measured by GC-MS after deionization of the sample. […] Quantitation of 3DG employed selected ion monitoring using an internal standard of U-13C-3DG.

[7] = system: human dermal fibroblasts acquired from a patient with scleroderma; experiment: Collagen 1A1 mRNA by Northern blot in scleroderma fibroblasts; format: cell-based; conditions: 5 mM, 72 hours, normalized to GAPDH mRNA
Experimental: In these experiments 5 mM FL was added to cultured human dermal fibroblasts acquired from a patient with scleroderma. After 72 hours, cells were collected and mRNA isolated. Equal amounts of each mRNA preparation was separated by electrophoresis and the amount of collagen 1A1 mRNA detected by Northern blot using a radioactive probe to the collagen 1A1 mRNA as shown in FIG. 19. A phosphoimager was used to quantify the amount of collagen type 1 mRNA. A radioactive probe to the GAPDH mRNA was used as a control to normalize the level of collagen 1A1 mRNA in each sample. The level of collagen 1A1 RNA was decreased by 40%.

3-deoxyglucosone = experiment: Reduction of urinary and plasma 3-deoxyglucosone by polyollysines and meglumine; format: in vivo, rat; conditions: for reduction of plasma 3-deoxyglucosone / average reduction of urinary 3-deoxyglucosone: rats, 10 μmols i.p.; for reduction of plasma 3-deoxyglucosone: plasma at end of 3 h; for average reduction of urinary 3-deoxyglucosone: urine 3 h before vs 3 h after, normalized to creatinine
Experimental: Urine was collected from six rats for three hours. A plasma sample was also obtained. The animals were then given 10 μmols of either sorbitollysine, mannitollysine, or galactitollysine by intraperitoneal injection. Urine was collected for another three hours, and a plasma sample obtained at the end of the three hours. 3-deoxyglucosone was measured in the samples, as described in Example 5, below, and variable volumes were normalized to creatinine. The average reduction of urinary 3-deoxyglucosone was 50% by sorbitollysine, 35% by mannitollysine and 35% by galactitollysine. Plasma 3-deoxyglucosone was reduced 40% by sorbitollysine, 58% by mannitollysine and 50% by galactitollysine.
Three rats were treated as in b), immediately above, except meglumine (100 μmols) was injected intraperitoneally instead of the above-mentioned lysine derivatives. Three hours after the injection the average 3-deoxyglucosone concentrations in the urine were decreased 42%.
3DG was measured by GC-MS after deionization of the sample. 3DG was derivatized with a 10-fold excess of diaminonaphthalene in PBS. Ethyl acetate extraction gave a salt free fraction which was converted to the trimethyl silyl ethers with Tri-Sil (Pierce). Analysis was performed on a Hewlett-Packard 5890 selected ion monitoring GC-MS system. GC was performed on a fused silica capillary column (DB-5,25 mx.25 mm) using the following temperature program: injector port 250° C., initial column temperature 150° C. which was held for 1 minute, then increased to 290° C. at 16° C./minute and held for 15 minutes. Quantitation of 3DG employed selected ion monitoring using an internal standard of U-13C-3DG.

desmosines [8] = experiment: Lung desmosine levels in STZ-diabetic mice; format: in vivo; conditions: regardless of whether diabetic
Experimental: as §1
Lung tissues from mice made diabetic with STZ was excised and analyzed for desmosine levels. The levels of desmosines in diabetic mice were greater than non-diabetic mice.

[9] = individual treated diabetic rats

SMILES: O=C(CN1CCOCC1)[C@@H](O)[C@H](O)[C@H](O)CO [1-deoxy-1-morpholinofructose]
aorta desmosine levels compared to untreated diabetic rats (desmosines [1]; diabetic rats, P=0.104): decrease in desmosine levels
aorta desmosine pmD/mgP (desmosines [1]; [9]): 3809 pmD/mgP and 2558 pmD/mgP and 2842 pmD/mgP and 2906 pmD/mgP and 3633 pmD/mgP and 3681 pmD/mgP
skin desmosine levels compared to untreated diabetic animals (desmosines [2]; diabetic animals, P=0.00242): lower levels of desmosines
skin desmosine content pmD/mgP (desmosines [2]; [9]): 63.1 pmD/mgP and 67.9 pmD/mgP (2×) and 88.1 pmD/mgP and 64.3 pmD/mgP and 65.8 pmD/mgP and 65.1 pmD/mgP and 66.8 pmD/mgP

SMILES: O=CC(=O)C[C@H](O)[C@H](O)CO [3DG, 3-deoxyglucosone, reference compound]
effect on collagen migration (crosslinking) ([3]; collagen type I with 5 mM 3DG): caused the collagen to migrate as if it had a higher molecular weight

SMILES: O=S(=O)([O-])[O-].[Cu+2] [Copper sulfate]
IC50 (Amadorase [4]): ~1 µM

SMILES: N=C(N)NCCC[C@H](N)C(=O)O [arginine]
inhibition of 3DG induced collagen crosslinking ([3]; collagen type I with 5 mM 3DG plus 10 mM arginine): fewer high molecular bands

3DG (mM) after 24 hours (Amadorase [5]; reaction 1: Amadorase +, ATP +): 1.58 mM
FL3P (mM) after 24 hours (Amadorase [5]; reaction 1: Amadorase +, ATP +): 0.2 mM
3DG (mM) after 24 hours (Amadorase [5]; reaction 2: Amadorase +, ATP −): 0.08 mM
FL3P (mM) after 24 hours (Amadorase [5]; reaction 2: Amadorase +, ATP −): 0.0 mM
3DG (mM) after 24 hours (Amadorase [5]; reaction 3: Amadorase −, ATP +): 0.09 mM
FL3P (mM) after 24 hours (Amadorase [5]; reaction 3: Amadorase −, ATP +): 0.0 mM
3DG (mM) after 24 hours (Amadorase [5]; reaction 4: Amadorase −, ATP −): 0.08 mM
FL3P (mM) after 24 hours (Amadorase [5]; reaction 4: Amadorase −, ATP −): 0.0 mM
time of peak 3DF excretion in urine after FL bolus [6]: about 4 hours
SMILES: N[C@@H](CCCCNCC(=O)[C@@H](O)[C@H](O)[C@H](O)CO)C(=O)O [fructoselysine]
decrease of level of collagen 1A1 RNA [7]: 40%

SMILES: N[C@@H](CCCCNC[C@H](O)[C@@H](O)[C@@H](O)[C@H](O)CO)C(=O)O [galactitollysine]
reduction of plasma 3-deoxyglucosone (3-deoxyglucosone): 50%
average reduction of urinary 3-deoxyglucosone (3-deoxyglucosone): 35%

SMILES: N[C@@H](CCCCNC[C@@H](O)[C@@H](O)[C@H](O)[C@H](O)CO)C(=O)O [mannitollysine]
reduction of plasma 3-deoxyglucosone (3-deoxyglucosone): 58%
average reduction of urinary 3-deoxyglucosone (3-deoxyglucosone): 35%

SMILES: CNC[C@H](O)[C@@H](O)[C@H](O)[C@H](O)CO [meglumine, reference compound]
lung desmosine levels compared to untreated mice (desmosines [8]): less than mice not so treated
decrease of average 3-deoxyglucosone concentration in urine (3-deoxyglucosone; three rats, 100 μmols i.p., three hours after injection): 42%

SMILES: N[C@@H](CCCCNC[C@H](O)[C@@H](O)[C@H](O)[C@H](O)CO)C(=O)O [sorbitollysine]
reduction of plasma 3-deoxyglucosone (3-deoxyglucosone): 40%
average reduction of urinary 3-deoxyglucosone (3-deoxyglucosone): 50%
